In patent publication US20090042906A1, “METHODS FOR TREATING CANCERS ASSOCIATED WITH CONSTITUTIVE EGFR SIGNALING” (Massachusetts Institute of Technology, priority 2007, published 2009):

How the values were obtained:
c-Met receptor [1] = molecular target: T1, c-Met receptor (Homo sapiens, UniProt P08581); experiment: Immunoblotting of c-Met receptor phosphorylation after kinase inhibitor treatment of U87H cells; type: cell-based; conditions: 1 h inhibitor dose escalation after 24-h serum starvation, Western blot
T1 construct: the U87MG cell line which expresses low levels of c-Met; endogenous in cells; host or cells: U87MG-derived U87H cells (human glioblastoma)
T1 sequence (P08581 25-1390): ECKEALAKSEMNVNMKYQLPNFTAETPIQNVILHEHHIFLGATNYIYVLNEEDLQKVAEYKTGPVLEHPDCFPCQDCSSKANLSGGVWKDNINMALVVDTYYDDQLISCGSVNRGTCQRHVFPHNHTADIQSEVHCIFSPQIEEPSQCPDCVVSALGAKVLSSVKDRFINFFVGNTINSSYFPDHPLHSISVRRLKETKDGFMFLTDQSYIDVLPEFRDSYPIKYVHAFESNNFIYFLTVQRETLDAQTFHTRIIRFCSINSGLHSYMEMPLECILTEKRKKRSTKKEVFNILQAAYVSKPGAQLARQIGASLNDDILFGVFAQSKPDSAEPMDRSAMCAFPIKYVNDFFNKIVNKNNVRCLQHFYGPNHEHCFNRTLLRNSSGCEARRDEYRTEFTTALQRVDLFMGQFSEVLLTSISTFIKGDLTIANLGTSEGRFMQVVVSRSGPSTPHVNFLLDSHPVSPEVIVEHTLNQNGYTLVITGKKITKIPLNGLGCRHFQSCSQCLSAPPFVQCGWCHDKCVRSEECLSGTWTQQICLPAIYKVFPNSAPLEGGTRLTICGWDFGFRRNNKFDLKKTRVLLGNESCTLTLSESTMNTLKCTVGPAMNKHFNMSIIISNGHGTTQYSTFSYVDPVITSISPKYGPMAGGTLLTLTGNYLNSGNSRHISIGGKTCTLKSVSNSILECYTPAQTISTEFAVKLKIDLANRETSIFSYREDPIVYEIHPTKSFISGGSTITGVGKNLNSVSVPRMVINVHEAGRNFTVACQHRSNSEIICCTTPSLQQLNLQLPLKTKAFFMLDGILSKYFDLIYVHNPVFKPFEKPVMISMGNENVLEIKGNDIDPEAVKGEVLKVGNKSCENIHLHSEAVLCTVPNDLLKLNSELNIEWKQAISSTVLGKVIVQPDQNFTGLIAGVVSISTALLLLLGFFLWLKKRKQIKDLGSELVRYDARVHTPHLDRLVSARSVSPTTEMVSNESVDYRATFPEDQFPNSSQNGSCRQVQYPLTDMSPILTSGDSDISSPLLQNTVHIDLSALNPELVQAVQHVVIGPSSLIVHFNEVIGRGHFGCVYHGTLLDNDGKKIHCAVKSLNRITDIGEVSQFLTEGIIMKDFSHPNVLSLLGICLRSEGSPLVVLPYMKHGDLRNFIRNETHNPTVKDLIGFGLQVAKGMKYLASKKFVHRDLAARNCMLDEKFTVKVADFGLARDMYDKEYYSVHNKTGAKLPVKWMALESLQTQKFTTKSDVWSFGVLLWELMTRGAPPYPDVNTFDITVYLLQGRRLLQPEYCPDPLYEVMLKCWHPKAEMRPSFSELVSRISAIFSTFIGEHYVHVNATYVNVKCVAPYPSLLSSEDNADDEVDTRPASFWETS
Method: For whole-cell extracts, cells were lysed in lysis buffer (20 mmol/L Tris-HCl, 150 mmol/L NaCl, 1 mmol/L EDTA, 1% Triton X-100, 2.5 mmol/L sodium PPi, 1 mmol/ ? glycerophosphate) containing protease and phosphatase inhibitors after the indicated treatment. Protein samples were separated on either 7.5% or 10% SDS-polyacrylamide gels and transferred onto polyvinylidene difluoride membrane. Blots were developed with supersignal West Femto substrate (Pierce) after incubation with primary and secondary antibodies. […] Cells were then lysed as described above for either immunoblotting or mass spectrometric analysis.

EGFRvIII receptor = molecular target: T2, EGFRvIII receptor (Homo sapiens, UniProt P00533, DELINS30-297G); experiment: Mass spectrometric phosphotyrosine analysis of SU11274 treated U87H cells (EGFRvIII sites); type: cell-based; conditions: mass spectrometry (data not shown)
T2 construct: expressed in transfected cells; host or cells: U87MG human glioblastoma cells (U87H population), retroviral transduction with pLERNL
Method: U87MG cells expressing titrated levels of EGFRvIII were maintained in DMEM medium supplemented with 10% FBS. 1.5 million cells per 10 cm plate were washed with PBS and incubated for 24 hours in serum-free media. Cells were lysed with 8 M urea supplemented with 1 mM sodium orthovanadate (Sigma-Aldrich). For each biological replicate, three 10 cm plates were pooled together. The samples were then further processed and labeled with the iTRAQ reagent as previously described (Zhang et al. (2005) Mol Cell Proteom 4:1240-1250). Peptide immunoprecipitation was performed as previously described (Zhang et al. (2005) Mol Cell Proteom 4:1240-1250), with the following exceptions: 10 μg of protein G Plus-agarose beads (Calbiochem) were incubated with 12 μg of anti-phosphotyrosine antibody (pTyr100 (Cell Signaling Technology) in 200 μl of IP buffer (100 mM Tris, 100 mM NaCl, 1% NP-40, pH 7.4) for 8 hr at 4° C. Immobilized metal affinity chromatography (IMAC) was performed as previously described to remove non-specific non-phosphorylated peptides and eluted phosphopeptides were analyzed by ESI LC-MS/MS on a QqT of (QSTAR XL Pro, Applied Biosystems) operated in IDA mode, as previously described (Zhang et al. (2005) Mol Cell Proteom 4:1240-1250).
MS/MS spectra were extracted and searched against human protein database (NCBI) using ProQuant (Applied Biosystems) as recommended by the manufacturer. […]

c-Met receptor [2] = molecular target: T1, c-Met receptor; experiment: Mass spectrometric phosphotyrosine analysis of SU11274 treated U87H cells (c-Met); type: cell-based; conditions: mass spectrometry
U87H cells [3] = experiment: Cell viability assay (WST-1); type: cell-based, human; conditions: for cytotoxicity of combination treatment: 10 μM c-Met inhibitor plus 5 μM AG1478, P<0.001 (SU11274), P<0.0001 (PHA665752); for cell viability, combined dosing with AG1478: c-Met inhibitor dose-response plus constant 5 μM AG1478, 72 h; for cell viability, combination with cisplatin: increasing doses of inhibitor with constant 10 μg/ml cisplatin, versus cisplatin only control; for cell viability, single agent: single treatment, 72 h after 24-h serum starvation
U87H cells [4] = experiment: Apoptosis assay (caspase 3/7 activity, Apo-ONE); type: cell-based, human
Method: 10,000 cells were seeded per well in a 96 well plate. […] After 24 hours of drug treatment, caspase 3/7 activity was measured using Apo-ONE Homogeneous Caspase-3/7 Assay (Promega), following the manufacturer's recommendations.

[5] = system: human glioblastoma xenografts expressing EGFRvIII; conditions: co-treatment of cisplatin with AG1478; cited from earlier work

Compound	c-Met receptor phosphorylation (Y1230/Y1234/Y1235) (c-Met receptor [1])	EGFRvIII receptor tyrosine phosphorylation on multiple sites (EGFRvIII receptor)	specificity for the kinase activity of the c-Met receptor (c-Met receptor [2])	cytotoxicity of combination treatment (U87H cells [3])	cell viability, combined dosing with AG1478 (U87H cells [3]; WST-1)	cell viability, combination with cisplatin (U87H cells [3])	cell viability, single agent (U87H cells [3]; WST-1)	apoptosis (caspase 3/7 cleavage), combination treatment (U87H cells [4]; 10 μM SU11274 plus 5 μM AG1478, 24 h after 24-h serum starvation, P<0.01)	cell death, combined dosing with AG1478 (U87H cells [4]; SU11274 with constant 5 μM AG1478)	sensitisation of xenografts to cisplatin [5]	cell viability, cisplatin only (U87H cells [3]; 10 μg/ml cisplatin over 72 h after 24-h serum starvation, WST-1)
Cc1[nH]c(/C=C2\C(=O)Nc3ccc(S(=O)(=O)N(C)c4cccc(Cl)c4)cc32)c(C)c1C(=O)N1CCN(C)CC1 [SU11274]	dose dependent decrease	does not affect	exquisitely specific	significantly enhanced cytotoxicity	synergistic decrease in cell viability	dramatic decrease in cell viability	only decreased cell viability at very high inhibitor doses	significantly enhanced apoptosis	increase in cell death		
COc1cc2ncnc(Nc3cccc(Cl)c3)c2cc1OC [AG1478]	concomitant decrease					similar	only decreased cell viability at very high inhibitor doses			sensitized to cisplatin	
Cc1[nH]c(/C=C2\C(=O)Nc3ccc(S(=O)(=O)Cc4c(Cl)cccc4Cl)cc32)c(C)c1C(=O)N1CCC[C@@H]1CN1CCCC1 [PHA665752]				significantly enhanced cytotoxicity	synergistically sensitize						
N.N.[Cl][Pt][Cl] [cisplatin]											resistant
